# Measured values published in US8952024B2, “Herbicidal pyrimidone derivatives” (E I du Pont de Nemours and Company, priority 2009, dated 2015).
# How the values were obtained:
# Type in all cases: in vivo
# [1] = tested on: barnyardgrass (Echinochloa crus-galli); experiment: Test A pre-/postemergence plant response; settings: for Barnyardgrass plant response rating: visual injury, 0 to 100 scale (0 no effect, 100 complete control), approx. ten days
# Source text: (§1) Seeds of barnyardgrass (Echinochloa crus-galli), large crabgrass (Digitaria sanguinalis), giant foxtail (Setaria faberii), morningglory (Ipomoea spp.), pigweed (Amaranthus retroflexus), velvetleaf (Abutilon theophrasti), wheat (Triticum aestivum) and corn (Zea mays) were planted into a blend of loam soil and sand and treated preemergence with a directed soil spray using test chemicals formulated in a non-phytotoxic solvent mixture which included a surfactant. At the same time these species were also treated with postemergence applications of test compounds formulated in the same manner.
# (§2) Plants ranged in height from two to ten cm and were in the one- to two-leaf stage for the postemergence treatment. Treated plants and untreated controls were maintained in a greenhouse for approximately ten days, after which time all treated plants were compared to untreated controls and visually evaluated for injury. Plant response ratings, summarized in Table A, are based on a 0 to 100 scale where 0 is no effect and 100 is complete control. A dash (-) response means no test result.
# corn (Zea mays) = experiment: Test A pre-/postemergence plant response; settings: for Corn plant response rating: visual injury, 0 to 100 scale (0 no effect, 100 complete control), approx. ten days
# Source text: as §1, §2
# [2] = tested on: giant foxtail (Setaria faberii); experiment: Test A pre-/postemergence plant response
# Source text: as §1, §2
# [3] = tested on: large crabgrass (Digitaria sanguinalis); experiment: Test A pre-/postemergence plant response; settings: for Crabgrass, Large plant response rating: visual injury, 0 to 100 scale (0 no effect, 100 complete control), approx. ten days
# Source text: as §1, §2
# [4] = tested on: morningglory (Ipomoea spp.); experiment: Test A pre-/postemergence plant response
# Source text: as §1, §2
# [5] = tested on: pigweed (Amaranthus retroflexus); experiment: Test A pre-/postemergence plant response
# Source text: as §1, §2
# [6] = tested on: velvetleaf (Abutilon theophrasti); experiment: Test A pre-/postemergence plant response
# Source text: as §1, §2
# [7] = tested on: wheat (Triticum aestivum); experiment: Test A pre-/postemergence plant response
# Source text: as §1, §2
# [8] = tested on: barnyardgrass (Echinochloa crus-galli); experiment: Test B flooded paddy test; settings: for Plant response rating, Flood, Barnyardgrass: 250 g ai/ha, flooded paddy test, visual rating on 0 to 100 scale (0 no effect, 100 complete control) after 13 to 15 days; for Plant response rating, Barnyardgrass: Flood (flooded paddy test), 13 to 15 days; for Barnyardgrass plant response rating: Flood, 31 g ai/ha, scale 0 to 100 (0 no effect, 100 complete control)
# Method in brief: (§3)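 Rice, umbrella sedge, ducksalad and barnyardgrass were grown to the 2-leaf stage, flooded to 3 cm, and compound was applied directly to the paddy water, with that depth kept throughout. After 13 to 15 days in the greenhouse, plants were visually rated against controls on a 0 (no effect) to 100 (complete control) scale.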
# [9] = tested on: ducksalad (Heteranthera limosa); experiment: Test B flooded paddy test; settings: for Plant response rating, Flood, Ducksalad: 250 g ai/ha, flooded paddy test, visual rating on 0 to 100 scale (0 no effect, 100 complete control) after 13 to 15 days; for Plant response rating, Ducksalad: Flood (flooded paddy test), 13 to 15 days; for Ducksalad plant response rating: Flood, 31 g ai/ha, scale 0 to 100 (0 no effect, 100 complete control)
# Method in brief: as §3
# rice (Oryza sativa) = experiment: Test B flooded paddy test; settings: for Plant response rating, Flood, Rice: 250 g ai/ha, flooded paddy test, visual rating on 0 to 100 scale (0 no effect, 100 complete control) after 13 to 15 days; for Plant response rating, Rice: Flood (flooded paddy test), 13 to 15 days; for Rice plant response rating: Flood, 31 g ai/ha, scale 0 to 100 (0 no effect, 100 complete control)
# Method in brief: as §3
# [10] = tested on: umbrella sedge (Cyperus difformis); experiment: Test B flooded paddy test; settings: for Plant response rating, Flood, Sedge, Umbrella: 250 g ai/ha, flooded paddy test, visual rating on 0 to 100 scale (0 no effect, 100 complete control) after 13 to 15 days; for Plant response rating, Sedge, Umbrella: Flood (flooded paddy test), 13 to 15 days; for Sedge, Umbrella plant response rating: Flood, 31 g ai/ha, scale 0 to 100 (0 no effect, 100 complete control)
# Method in brief: as §3
# [11] = Postemergence, 125 g ai/ha, 0 to 100 scale where 0 is no effect and 100 is complete control
# [12] = Preemergence, 125 g ai/ha, 0 to 100 scale where 0 is no effect and 100 is complete control, approximately ten days
# [13] = Preemergence, 500 g ai/ha, 0 to 100 scale, 0 = no effect, 100 = complete control
# [14] = Postemergence, 125 g ai/ha, visual injury, 0 to 100 scale (0 no effect, 100 complete control), approx. ten days
# [15] = Postemergence, 500 g ai/ha, visual injury, 0 to 100 scale (0 no effect, 100 complete control), approx. ten days
# [16] = 62 g ai/ha, scale of 0 to 100 where 0 is no effect and 100 is complete control
# [17] = 125 g ai/ha, scale 0 to 100, 0 is no effect, 100 is complete control
# [18] = Preemergence, 125 g ai/ha, 0 to 100 scale, 0 = no effect, 100 = complete control
structure (smiles),measurement,setting,value
O=C(C1=C(O)C2CCC(C2)C1=O)c1cnc(-c2cc(F)c(F)c(F)c2)n(C2CCCCC2)c1=O (stereo not drawn) [Compound 251],"Plant response rating, Barnyardgrass",[1]; [11],80
same,Barnyardgrass plant response rating,"[1]; Postemergence, 500 g ai/ha",100
same,"Plant response rating, Barnyardgrass",[1]; [12],0
same,"Plant response rating, Barnyardgrass",[1]; [13],20
same,"Plant response rating, Corn",corn (Zea mays); [11],0
same,Corn plant response rating,"corn (Zea mays); Postemergence, 500 g ai/ha",20
same,"Plant response rating, Corn",corn (Zea mays); [12],0
same,"Plant response rating, Corn",corn (Zea mays); [13],0
same,"Plant response rating, Foxtail, Giant",[2]; [14],50
same,"Foxtail, Giant plant response rating",[2]; [15],90
same,"Plant response rating, Foxtail, Giant",[2]; [12],10
same,"Plant response rating, Foxtail, Giant",[2]; [13],40
same,"Plant response rating, Crabgrass, Large",[3]; [11],50
same,"Crabgrass, Large plant response rating","[3]; Postemergence, 500 g ai/ha",90
same,"Plant response rating, Crabgrass, Large",[3]; [12],20
same,"Plant response rating, Crabgrass, Large",[3]; [13],80
same,"Plant response rating, Morningglory",[4]; [14],100
same,Morningglory plant response rating,[4]; [15],100
same,"Plant response rating, Morningglory",[4]; [12],0
same,"Plant response rating, Morningglory",[4]; [13],40
same,"Plant response rating, Pigweed",[5]; [14],70
same,Pigweed plant response rating,[5]; [15],80
same,"Plant response rating, Pigweed",[5]; [12],0
same,"Plant response rating, Pigweed",[5]; [13],60
same,"Plant response rating, Velvetleaf",[6]; [14],100
same,Velvetleaf plant response rating,[6]; [15],100
same,"Plant response rating, Velvetleaf",[6]; [12],50
same,"Plant response rating, Velvetleaf",[6]; [13],70
same,"Plant response rating, Wheat",[7]; [14],0
same,Wheat plant response rating,[7]; [15],10
same,"Plant response rating, Wheat",[7]; [12],0
same,"Plant response rating, Wheat",[7]; [13],0
same,"Plant response rating, Flood, Barnyardgrass",[8],20
same,"Plant response rating, Barnyardgrass",[8]; [16],0
same,"Plant response rating, Barnyardgrass",[8]; [17],0
same,Barnyardgrass plant response rating,[8],0
same,"Plant response rating, Flood, Ducksalad",[9],80
same,"Plant response rating, Ducksalad",[9]; [16],0
same,"Plant response rating, Ducksalad",[9]; [17],50
same,Ducksalad plant response rating,[9],0
same,"Plant response rating, Flood, Rice",rice (Oryza sativa),10
same,"Plant response rating, Rice",rice (Oryza sativa); [16],0
same,"Plant response rating, Rice",rice (Oryza sativa); [17],0
same,Rice plant response rating,rice (Oryza sativa),0
same,"Plant response rating, Flood, Sedge, Umbrella",[10],75
same,"Plant response rating, Sedge, Umbrella",[10]; [16],50
same,"Plant response rating, Sedge, Umbrella",[10]; [17],65
same,"Sedge, Umbrella plant response rating",[10],0
CCc1cccc(-c2ncc(C(=O)C3=C(O)CCCC3=O)c(=O)n2C2CCCCC2)c1 [Compound 194],"Plant response rating, Barnyardgrass",[1]; [11],90
same,Barnyardgrass plant response rating,"[1]; Postemergence, 500 g ai/ha",100
same,"Plant response rating, Barnyardgrass",[1]; [18],0
same,"Plant response rating, Barnyardgrass",[1]; [13],40
same,"Plant response rating, Corn",corn (Zea mays); [11],0
same,Corn plant response rating,"corn (Zea mays); Postemergence, 500 g ai/ha",10
same,"Plant response rating, Corn",corn (Zea mays); [18],0
same,"Plant response rating, Corn",corn (Zea mays); [13],0
same,"Plant response rating, Foxtail, Giant",[2]; [11],30
same,"Foxtail, Giant plant response rating",[2]; [15],50
same,"Plant response rating, Crabgrass, Large",[3]; [11],60
same,"Crabgrass, Large plant response rating","[3]; Postemergence, 500 g ai/ha",90
same,"Plant response rating, Crabgrass, Large",[3]; [18],20
same,"Plant response rating, Crabgrass, Large",[3]; [13],40
same,"Plant response rating, Morningglory",[4]; [11],90
same,Morningglory plant response rating,[4]; [15],100
same,"Plant response rating, Morningglory",[4]; [13],20
same,"Plant response rating, Pigweed",[5]; [11],100
same,Pigweed plant response rating,[5]; [15],100
same,"Plant response rating, Pigweed",[5]; [18],50
same,"Plant response rating, Pigweed",[5]; [13],100
same,"Plant response rating, Velvetleaf",[6]; [11],100
same,Velvetleaf plant response rating,[6]; [15],100
same,"Plant response rating, Velvetleaf",[6]; [18],30
same,"Plant response rating, Velvetleaf",[6]; [13],70
same,"Plant response rating, Wheat",[7]; [11],0
same,Wheat plant response rating,[7]; [15],0
same,"Plant response rating, Wheat",[7]; [18],0
same,"Plant response rating, Wheat",[7]; [13],0
same,"Plant response rating, Flood, Barnyardgrass",[8],15
same,"Plant response rating, Barnyardgrass",[8]; [16],0
same,"Plant response rating, Barnyardgrass",[8]; [17],10
same,Barnyardgrass plant response rating,[8],0
same,"Plant response rating, Flood, Ducksalad",[9],80
same,"Plant response rating, Ducksalad",[9]; [16],50
same,"Plant response rating, Ducksalad",[9]; [17],50
same,Ducksalad plant response rating,[9],40
same,"Plant response rating, Flood, Rice",rice (Oryza sativa),0
same,"Plant response rating, Rice",rice (Oryza sativa); [16],0
same,"Plant response rating, Rice",rice (Oryza sativa); [17],0
same,Rice plant response rating,rice (Oryza sativa),0
same,"Plant response rating, Flood, Sedge, Umbrella",[10],65
same,"Plant response rating, Sedge, Umbrella",[10]; [16],0
same,"Plant response rating, Sedge, Umbrella",[10]; [17],0
same,"Sedge, Umbrella plant response rating",[10],0
